From the METLIN SMRT retention time set (Domingo-Almenara et al. 2019)

Assay: gradient 5% acetonitrile 3 min, to 50% in 2 min, to 85% in 15 min, held 3 min, 100 µL/min
Settings: column: Zorbax Extend-C18 2.1 x 50 mm; eluents: water / acetonitrile, 0.1% formic acid
Method in brief: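 Over 3 months, pure standards in mixtures of ~100 molecules were run by HPLC coupled to a quadrupole time-of-flight mass spectrometer in positive and negative ionization mode. The column was a Zorbax Extend-C18 (2.1 × 50 mm, 1.8 μm) at 100 μL/min, eluted with water and acetonitrile each holding 0.1% formic acid, with 40 μL dead and 900 μL dwell volumes. Retention time was determined from adduct peaks chosen by software and checked manually.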

SMILES | RP-LC retention time [s]
CCOC(=O)c1ccc(Nc2c(C(=O)N3CCCCC3CC)cnc3nc(C)ccc23)cc1 (stereo not given) | 701
COc1cccc(-c2noc(Cn3ccn(-c4c(C)cccc4C)c(=O)c3=O)n2)c1 | 872
O=C(Cn1cnc2nc(N3CCCC(C(=O)NC4CC4)C3)sc2c1=O)NCCC1=CCCCC1 (stereo not given) | 722
Cc1noc(C)c1S(=O)(=O)N1CCCC(c2nnnn2-c2ccccc2)C1 (stereo not given) | 903
CCCNC(=O)C1CCCN(c2ccc(SCC(=O)Nc3ccc(C)cc3Cl)nn2)C1 (stereo not given) | 748
Cn1ncc2c3ccccc3n(CC(=O)NCCCN3CCC(N4CCCCC4)CC3)c2c1=O | 527
CC(C)(C)C1CCc2[nH]nc(C(N)=O)c2C1 (stereo not given) | 745
O=C(CNC(=O)c1ccc(=O)[nH]c1)NCC1CCCCC1 | 599
COCCCNC(=O)Cn1c(=O)c(S(=O)(=O)c2ccccc2)cc2cc(C)ccc21 | 743
CCCCN1N=C(C(=O)N2CCC(C)CC2)S(=O)(=O)c2ccccc21 | 1030
CCn1cc(CN(Cc2c(C)nn(C)c2C)C(=O)C2CCN(c3cnn(C)c(=O)c3)C2)cn1 (stereo not given) | 603
CCOc1ccc(-n2nc(-c3nc(-c4ccncc4)no3)c3ccccc3c2=O)cc1 | 1090
O=C1C2CC=CCC2C(=O)N1c1ccc(N2CCN(c3ccccn3)CC2)c([N+](=O)[O-])c1 (stereo not given) | 676
Cc1nnc(N2CCCC(C(=O)NCCCN3CCCC3)C2)c2nn(-c3ccccc3)c(C)c12 (stereo not given) | 558
N#Cc1ccc(C(=O)Nc2cnn(-c3ncc(N4CCCC4)cn3)c2)cc1 | 798
Cc1nc([C@@H]2CN(C(=O)c3cc(C4CC4)[nH]n3)C[C@H]2C(N)=O)n[nH]1 | 540
CCc1ccc(NC(=O)Cn2nc3c(N4CCSCC4)nccn3c2=O)cc1 | 888
CCCc1ccc(C(=O)CC2(O)C(=O)Nc3ccccc32)cc1 (stereo not given) | 831
COc1cc(CN2C[C@@H]3C(=O)N(CCCN4CCCC4=O)C(=O)[C@@H]3C2)ccc1OC(C)C | 610
COC(=O)c1ccc2c(=O)n(-c3ccccc3)c(N3CCN(c4ccccn4)CC3)nc2c1 | 684
CCOC(=O)COC(=O)c1cn(-c2cccc(F)c2)c(=O)c2ccccc12 | 1020
CSc1cccc(N2C=C(C(=O)N3CCCC3)S(=O)(=O)c3ccccc32)c1 | 819
CCOCCCNC(=O)C1CCCN(c2nnc(C)c3c(C)n(-c4ccc(OC)cc4)nc23)C1 (stereo not given) | 665
COCCN1CC2(CCN(S(=O)(=O)c3cc(C)c(C)cc3C)CC2)C1c1ccncc1 (stereo not given) | 672
CC(C)c1nncn1C1CCN(S(=O)(=O)c2ccccc2Cl)CC1 | 716
Cc1ccc(Cn2c(=O)n(CCNC(=O)C3CCCO3)c3ncccc32)cc1 (stereo not given) | 726
Cc1ccc(S(=O)(=O)N(C)c2ccc(C(=O)N3C(C)CCCC3C)cc2)cc1 (stereo not given) | 961

More lines, now with the values ahead:

RP-LC retention time [s] | SMILES
612 | CS(=O)(=O)N1CCCC(C(=O)Nc2ccc3c(c2)C(=O)NC3=O)C1 (stereo not given)
749 | O=C(NCc1cccc(Cl)c1)C1CC(=O)N(c2n[nH]c3cccc(F)c23)C1 (stereo not given)
750 | COc1ccc(CCNC(=O)CN2C(=O)NC(c3ccc(Cl)cc3)C3=C2COC3=O)cc1OC (stereo not given)
672 | O=C(CSc1nnc(CNC(=O)c2ccc(F)cc2)o1)NCc1ccc2c(c1)OCO2
1060 | Cc1nc2cc(-c3noc(-c4cncc(Br)c4)n3)ccc2o1
1280 | CCNC(=O)NS(=O)(=O)c1sc(CC(C)C)cc1-c1ccc(Cn2c(-c3ccccc3)nc(OC)c2C=O)cc1
841 | COC(=O)c1cc(S(=O)(=O)N2CCCC2C(=O)Nc2ccc(C#N)cc2)cn1C (stereo not given)
913 | Cc1ccc(N2CCN(C(=O)c3cn(-c4ccc(NC(=O)C5CC5)cn4)cn3)CC2)c(C)c1
698 | Cn1nc2c(c1NC(=O)c1ccc([N+](=O)[O-])s1)CCC2
764 | COc1ccc(CNC(=O)C2=C3CCCN3c3ccc(F)cc3S2(=O)=O)cc1OC
634 | Cc1ccc(-c2nc(Cn3ccnc3C)no2)cc1
856 | CCCC(=O)Nc1nc(-c2ccc3c(c2)N(C)C(=O)CO3)c(C)s1
802 | O=C(NC1CC1)c1nc2ccccn2c1-c1ccc(Cl)cc1
1150 | Cc1ccccc1-c1nc(C2CCN(S(=O)(=O)c3ccccc3F)CC2)no1
633 | CSc1ncccc1C(=O)Nc1ccc(CC(=O)NC(C)(C)CO)cc1
794 | CCOC(=O)c1nc(NC(C)c2ccccc2)c2ccccc2n1 (stereo not given)
1040 | CC(C)c1cc(C(=O)Nc2ccc(F)c(F)c2)no1
966 | COc1ccc(OC)c(NC(=O)C2CCCN(S(=O)(=O)c3cc(-c4noc(C)n4)cs3)C2)c1 (stereo not given)
702 | Cc1cc(C)cc(NC(=O)NCCn2nnc3cc(C(=O)N4CCCC4)ccc32)c1

RP-LC retention time [s] | SMILES
936 | Cc1c(Cl)cccc1NC(=O)CSc1nnc2c3cc(-c4ccc(F)cc4)nn3ccn12
1030 | O=C1CC(c2noc(-c3cccc(Cl)c3)n2)CN1c1ccc(F)cc1 (stereo not given)
1020 | CCc1ccc(NS(=O)(=O)c2ccc3c(c2)C(=O)N(CC)c2ncccc2O3)cc1
666 | COc1ccc2[nH]c(=O)c(CCC(=O)Nc3ccc(OC)c(OC)c3)cc2c1
1160 | COc1ccc(Cl)cc1NC(=O)CSc1nccc(N2CCN(c3cc(C)ccc3C)CC2)n1
628 | O=C(Nc1ccc2ncnc(N3CCCC3)c2c1)C1CCC1
879 | Cc1cccc(CN2CCCn3nc(C(=O)NC4CCCC4)cc3C2=O)c1
1110 | O=C(Cn1c(=O)cc(-c2nc(C3CC3)no2)c2ccccc21)NCCC1=CCCCC1
770 | O=C(Nc1ccc2c(c1)OCO2)C1CCN(S(=O)(=O)c2cc(C(=O)N3CCCC3)cs2)CC1
612 | Cc1cc(C)cc(S(=O)(=O)Nc2ccc3nc(N4CCN(C)CC4)cc(C(=O)O)c3c2)c1
964 | COC(=O)C1=C(NC(=O)c2cccc(F)c2)CCS1
1190 | Fc1ccc(Nc2nc(-c3cccc(Cl)c3)cs2)nc1
1030 | CC(C)c1nc(N(C)Cc2ccccc2)ncc1C(=O)O
704 | O=C(NCc1ccc(Cl)cc1)C1CCc2nc(N3CCOCC3)ncc2C1 (stereo not given)
908 | COc1cc(OC)cc(-c2noc(CCn3nc(-c4ccc5c(c4)OCO5)ccc3=O)n2)c1
1150 | CCn1cc(-c2ccc(Cl)cc2)cc1C(=O)N1CCCCC1
602 | O=C(Nc1ccccc1)NC1CCCN(c2cc(-c3ccncc3)[nH]n2)C1 (stereo not given)
696 | CCOC(=O)c1noc2nc(C)nc(NCC3CCN(Cc4cccc(Cl)c4)CC3)c12
761 | COCCN1C(=O)CCc2cc(NC(=O)CCc3ccccc3)ccc21
